Patent EP3325012B1, “CINEOLE-CONTAINING COMPOSITION FOR TREATING NOSE POLYPS” (Maria Clementine Martin Klosterfrau Vertriebsgesellschaft …, priority 2015, dated 2017)

Columns and labels:
[1] = test system: GSK-3; assay: Immunohistochemistry, subcellular (endolysosomal) localisation of GSK-3; type: cell-based, Mensch; conditions: 100 µM, versus control medium (Figur 4B)
Excerpt: Frische eingefrorene Gewebeschnitte wurden für 10 Minuten in 100 % Methanol fixiert. Nach einer Trocknungszeit von 10 Minuten wurden die Schnitte bei Raumtemperatur mit TBS (RT-TBS) gewaschen. Danach wurden die Gewebeproben zur Inhibition der endogenen Peroxidase 15 Minuten lang in RT-TBS mit 3 % H2O2 inkubiert.
Nach einem Waschschritt mit RT-TBS wurden die Proben in TBS mit 0,3 % Triton X für 15 Minuten permeabilisiert. Die Schnitte wurden in einer 1 : 100-Verdünnung mit Anti-Phospho-GSK-3-alpha/beta-Antikörpern (Cell Signaling Technology Inc., Massachusetts, USA, Katalognummern 5676 und 9331) über Nacht bei 4 °C inkubiert.
Am nächsten Tag wurden die Objektträger mit RT-TBS gewaschen und danach für 20 Minuten bei Raumtemperatur mit einem sekundären Polylink-Antikörper inkubiert. Nach dem Waschen mit RT-TBS wurden die Proben mit Peroxidase-Marker (HRP) (beide DCS Detection line, Innovative Diagnostik-Systeme, Hamburg, Deutschland) inkubiert.
Nach dem Waschen mit RT-PBS wurden die Schnitte in AEC (DCS Chromoline, Innovative Diagnostik-Systeme, Hamburg, Deutschland) inkubiert. Die Reaktion wurde mit RT-TBS gestoppt. Schließlich wurde eine Zellkernfärbung mit Mayer's Haematoxylin durchgeführt. Die Schnitte wurden in wässrigem "Dako Faramount Medium" (Dako North America Inc., Carpinteria, CA, USA) eingebettet. […]

[2] = test system: Polyposis nasi et sinuum; assay: Cell vitality of polyp single-cell suspensions in culture; type: cell-based, Mensch; conditions: 1mM Cineol versus standard medium, culture over 288 Stunden; effect after 96 bis 144 Stunden; polyps of 5 patients
Method: Proben von Nasenpolypen wurden in PBS-Puffer gewaschen und in sterilem serumfreiem "High Glucose Dulbecco's Modified Eagle Medium" (PAA, Pasching, Österreich) mit einer Skalpellklinge vorsichtig in kleine Stücke zerkleinert, wobei das Medium 1 % L-Glutamin, 1 % Natriumpyruvat, 1 % nichtessentielle Aminosäuren, 2 % Amphotericin B, 2 % Streptomycin und 2 % Penicillin, ergänzt mit 10 % FCS, und 25 mM HEPES Puffer, enthielt (alle von PAA, Pasching, Österreich). Danach wurden die Gewebeproben durch eine enzymatische Behandlung und Waschschritte mit Collagenase Typ II (31,5 mg/ml, GIBCO, Eggenstein, Deutschland) und Hyaluronidase (3,99 mg/ml, Sigma, München, Deutschland) in einem ersten Schritt und mit Dispase (33,4 mg/ml, Sigma, München, Deutschland) in einem zweiten Schritt jeweils unter Schütteln bei 37 °C für 120 Minuten enzymatisch verdaut. Zwischen den enzymatischen Behandlungen und den Waschschritten wurden die Zellen zentrifugiert. Die resultierenden Zellsuspensionen wurden in PBS (PAA, Pasching, Österreich), enthaltend 2 % BSA, gewaschen und jeweils durch einen 70 µm und einen 60 µm Nylon-Zellfilter (Falcon, Becton Dickinson Labware, Heidelberg, Deutschland) filtriert.
Erste Vorversuche zum Einfluss von Cineol auf die Progression von Polyposis nasi et sinuum wurden durchgeführt. […]

[3] = test system: Patienten mit Polyposis nasi et sinuum; type: in vivo, Mensch
Excerpt: Im Rahmen einer klinischen Anwendung erhielten 22 Patienten nach einer Nasennebenhöhlenoperation zusätzlich zu einer Standardmedikation 1,8-Cineol (Soledum forte®), 3-mal 1 Kapsel, über einen Zeitraum von 3 Monaten. Die präoperativen CT-Bilder wurden nach dem Lund-Mackay-Score bewertet. Die Patienten wurden gebeten, ihre Beschwerden mittels eines Fragebogens (SNOT20 - German adapted version) einzuschätzen. 21 von 22 Patienten beendeten die Therapie wie vorgesehen. Ein Patient berichtete über gastrointestinale Nebenwirkungen und brach die Behandlung mit 1,8-Cineol ab. […] Somit war ein gutes Ansprechen auf die zusätzliche medikamentöse Behandlung mit 1,8-Cineol bei einem tolerablen Nebenwirkungsprofil zu beobachten.

SMILES: CC12CCC(CC1)C(C)(C)O2 [1,8-Cineol, 1,3,3-Trimethyl-2-oxabicyclo[2.2.2]octan]
- endolysosomale Lokalisierung von GSK-3 [1]: verringerte endolysosomale Lokalisierung
- Zellvitalität [2]: massiven Abfall
- SNOT-20-Score ([3]; first orienting evaluation, compared with preoperative results): deutliche Verbesserung
- Rezidivpolyposis ([3]; follow-up examination after 6 months): lediglich bei einem Patienten eine beginnende geringfügige Rezidivpolyposis
- gastrointestinale Nebenwirkungen ([3]; in vivo): Ein Patient
